Measured values reported in ChEMBL document CHEMBL1148455, “Synthesis and use of novel ether phospholipid enantiomers to probe the molecular basis of the antitumor Effects of alkyllysophospholipids: correlation of differential activation of c-Jun NH(2)-terminal protein kinase with antiproliferative effects in neuronal tumor cells” (2004).
Activity calls are given as the source filed them. No cut-off for these calls is given here.

Tests used:
MDA-MB-468 [1] = test: Percentage viability of compound against MDA-MB-468 cell line; NE means No effect; assay type: functional, cell-based; conditions: Homo sapiens
T47D [2] = test: Percentage viability of compound against T47D cell line; NE means No effect; assay type: functional, cell-based; conditions: Homo sapiens
MCF7 [3] = test: Percentage viability of compound against MCF-7 cell line; NE means No effect; assay type: functional, cell-based; conditions: Homo sapiens
SK-N-MC [4] = test: Percentage viability of compound against SK-N-MC cell line; NE means No effect; assay type: functional, cell-based; conditions: Homo sapiens
MCF7 [5] = test: Percentage viability of compound against MCF-7 cell line; assay type: functional, Homo sapiens
MDA-MB-468 [6] = test: Percentage viability of compound against MDA-MB-468 cell line; 92-94%; assay type: functional, Homo sapiens
T47D [7] = test: Percentage viability of compound against T47D cell line; 92-94%; assay type: functional, Homo sapiens
SK-N-MC [8] = test: Percentage viability of compound against SK-N-MC cell line; 92-94%; assay type: functional, Homo sapiens

| Compound | Viability (MDA-MB-468 [1]) | Viability (T47D [2]) | Viability (MCF7 [3]) | Viability (SK-N-MC [4]) | Viability (MCF7 [5]) | Viability (MDA-MB-468 [6]) | Viability (T47D [7]) | Viability (SK-N-MC [8]) |
| --- | --- | --- | --- | --- | --- | --- | --- | --- |
| CCCCCCCCCCCCCCCCOC[C@H](/C=C/P(=O)([O-])OCC[N+](C)(C)C)OC | inactive | inactive | inactive | inactive |  |  |  |  |
| CCCCCCCCCCCCCCCCOC[C@@H](/C=C/P(=O)([O-])OCC[N+](C)(C)C)OC |  |  |  |  | 61% | <94% | <94% | <94% |
